Data reported in patent US20160279135A1, “THERAPIES FOR TREATING MYELOPROLIFERATIVE DISORDERS” (Gilead Sciences, Inc., priority 2013, published 2016).
Values joined by “and” are separate entries in the source; they are usually repeats but may differ in a detail not shown here. Equal values may be shown once.

Legend:
[1] = clinical; settings: human, in vivo
Description: For in vitro or in vivo studies, the effect amount of Compounds A, B, C, D, E, or ruxolinitib may be adjusted according to the experimental condition. Similarly, the effect amount of Compounds D1, D2, D3, D4, D5, D6, D7, D8, D9, E1, E2, E3, E4, E5, E6, E7, E8, E9, or F, may be adjusted according to the experimental condition for in vitro or in vivo studies. For example, compounds may be used in the amount of 0.001, 0.002, 0.003, 0.004, 0.005, 0.006, 0.007, 0.008, 0.009, 0.01, 0.02, 0.03, 0.04, 0.05, 0.06, 0.07, 0.08, 0.09, 0.1, 0.2, 0.3, 0.4, 0.5, 0.6, 0.7, 0.8, 0.9, 1.0, 1.5, 2.0, 2.5, 3.0, 3.5, 4.0, 5.0, 6.0, 7.0, 8.0, 9.0, or 10.0 μM. In some studies, the in vitro doses of the compounds may be calculated to correspond to the clinical doses of the compounds. The calculation may consider various factors, such as protein binding and plasma concentration. […] It is understood that the in vitro doses may differ, depend on the assay condition and other calculation factors, and that the clinical doses may differ depend on the disease indication and the patient condition.
(§1) In this study, PBMCs were isolated from the whole blood from five MF patients receiving chronic ruxolitinib treatment (rux 1-rux 5). The cells were treated with either vehicle, ruxolitinib, and/or Compound B for 2 hours then stimulated with TPO (50 ng/mL) for 10 minutes. Ruxolitinib at the dose of 1 or 20 nM and Compound B at the dose of 45, 200, or 700 nM were used.
Next, Pfeiffer cells were treated with IL6 (0 or 3 ng/mL), Compound A (0, 136, 272, or 695 nM), and/or Compound B (0, 74, 200, or 421 nM) (n=4 per group) for 96 hours. The doses in this assay may correspond to those used in a clinical setting. […] In addition, the in-vitro dose of 136 nM Compound A may correspond to the potential Caverage detected in patients receiving Compound A at 300 mg once a day.

[2] = test system: Pfeiffer cells; test: CellTiter-Glo cell viability of Pfeiffer cells with IL6; format: cell-based; settings: Homo sapiens, 96 h, IL6 3 ng/mL, n=4, read-out: percentage of viable Pfeiffer cells, AVG
Protocol: Next, Pfeiffer cells were treated with IL6 (0 or 3 ng/mL), Compound A (0, 136, 272, or 695 nM), and/or Compound B (0, 74, 200, or 421 nM) (n=4 per group) for 96 hours.
Cellular viability was determined using the CellTiter-Glo Luminescent Cell Viability Assay (Promega). The percentage of viable cells was normalized to the groups that were not treated with Compound A or Compound B, and standard deviation was calculated.

[3] = test system: pS6RP Ser235/236; test: flow cytometry of S6RP phosphorylation in CD34+ progenitor cells from MF patients; format: cell-based, human; settings: 2 h, MF progenitor cells
Protocol: (§2) In this example, PBMCs were isolated from whole blood of myelofibrosis (MF) patients who had not received treatments (i.e. naïve patients) or received ruxolitinib (i.e. rux-treated patients). The cells were treated with 0.02, 0.2, or 2.0 μM of Compound B or vehicle (0.1% DMSO in 0.1% FBS/RPMI) for 2 hours at 37° C. The cells were then fixed, permeabilized, and stained for FACS analysis. Antibodies specific to p-AKT Ser473 and pS6RP Ser235/236 were used to detect AKT phosphorylation (p-AKT) and S6RP phosphorylation (p-S6RP) in CD34^+/CD3^−/CD14^−/CD19/CD66^− (BD Biosciences) gated cells using flow cytometry. The percentage of basal (i.e. untreated with TPO) AKT and S6RP phosphorylation were normalized to vehicle control (i.e. “no TPO” values shown in Table 2). A two-tailed paired t-test (GraphPad Prism) was used to calculate p-values. Values of p<0.05 were considered significant.
(§3) Also, PBMC cells were treated with Compound B and with TPO as described above. The percentage of TPO-activated AKT and S6RP phosphorylation were normalized to those of TPO-treated vehicle. […] Also, the inhibition to PI3K signaling was dose-dependent to Compound B.
(§4) Similar studies were conducted with PI3K inhibitors Compounds C and D. PBMC from MF patients had received ruxolitinib (rux) and MF patient had received Compound A. The cells were treated with Compounds C or D at 0, 20.0, 200.0, 2000.0 nM for 2 hours at 37° C. Cells were treated with TPO for 10 minutes. The percentage of basal p-AKT and p-S6RP levels were normalized to vehicle control and those of TPO-treated were normalized to TPO-treated vehicle control. The PI3K inhibitors Compounds C and D had the chemical names of (S)-2-(1-((9H-purin-6-yl)amino)ethyl)-6-fluoro-3-phenylquinazolin-4(3H)-one and (S)-2,4-diamino-6-(((5-chloro-8-fluoro-4-oxo-3-(pyridine-3-yl)-3,4-dihydroquinazolin-2-yl)(cyclopropyl)methyl)amino)pyrimidine-5-carbonitrile, respectively.

[4] = test system: p-AKT Ser473; test: flow cytometry of AKT phosphorylation in CD34+ progenitor cells from MF patients; format: cell-based, human; settings: 2 h, MF progenitor cells
Protocol: as §2, §3, §4

[5] = test system: p-STAT5; test: flow cytometry of p-STAT5 in TPO-stimulated CD34+ cells from MF patients on chronic ruxolitinib (Example 8); format: cell-based, human; settings: 2 h, then TPO 50 ng/mL, one value per patient, TPO vehicle = 100
Protocol: as §1
(§5) The treated cells were then fixed, permeabilized and stained for FACS analysis using FACSCalibur analyzed using BD FACSDiva software.

[6] = test system: p-S6RP; test: flow cytometry of p-S6RP in TPO-stimulated CD34+ cells from MF patients on chronic ruxolitinib (Example 8); format: cell-based, human; settings: for percentage of the p-S6RP levels: 2 h, then TPO 50 ng/mL, one value per patient, TPO vehicle = 100
Protocol: as §1, §5

[7] = test system: pSTAT3 (Tyr705); test: Western blot of pSTAT3 in IL6-stimulated Pfeiffer cells; format: cell-based; settings: vs 0 ng/mL IL6, normalized to total STAT3, n=1
Protocol: Pfeiffer cells were stimulated for 4 hours with 0, 1, 3, or 10 ng/mL of interleukin 6 (IL6) (n=1 per group) to activate STAT3 (i.e. increase the levels of pSTAT3). The cells were harvested, lysed and analyzed by Western blot. Antibodies specific for pSTAT3 (Tyr705) and total STAT3 were used to detect the levels of pSTAT3 and total STAT3, respectively. Raw pSTAT3 levels were quantified using densitometry software (Image Studio) and normalized to total STAT3 levels.

[8] = 20 nM, Basal, Compound A-treated Cells, vehicle = 100
[9] = 20 nM, Basal, Rux-treated Cells, vehicle = 100
[10] = 20 nM, TPO 10 min, Compound A-treated Cells, TPO-treated vehicle = 100
[11] = 20 nM, TPO 10 min, Rux-treated Cells, TPO-treated vehicle = 100
[12] = 200 nM, Basal, Compound A-treated Cells, vehicle = 100
[13] = 200 nM, Basal, Rux-treated Cells, vehicle = 100
[14] = 200 nM, TPO 10 min, Compound A-treated Cells, TPO-treated vehicle = 100
[15] = 200 nM, TPO 10 min, Rux-treated Cells, TPO-treated vehicle = 100
[16] = 2000 nM, Basal, Compound A-treated Cells, vehicle = 100
[17] = 2000 nM, Basal, Rux-treated Cells, vehicle = 100
[18] = 2000 nM, TPO 10 min, Compound A-treated Cells, TPO-treated vehicle = 100
[19] = 2000 nM, TPO 10 min, Rux-treated Cells, TPO-treated vehicle = 100

Molecule	percentage of p-S6RP (pS6) [3, 8] [%]	percentage of p-S6RP (pS6) [3, 9] [%]	percentage of p-S6RP (pS6) [3, 10] [%]	percentage of p-S6RP (pS6) [3, 11] [%]	percentage of p-S6RP (pS6) [3, 12] [%]	percentage of p-S6RP (pS6) [3, 13] [%]	percentage of p-S6RP (pS6) [3, 14] [%]	percentage of p-S6RP (pS6) [3, 15] [%]	percentage of p-S6RP (pS6) [3, 16] [%]	percentage of p-S6RP (pS6) [3, 17] [%]	percentage of p-S6RP (pS6) [3, 18] [%]	percentage of p-S6RP (pS6) [3, 19] [%]	percentage of p-AKT (pAKT) [4, 8] [%]	percentage of p-AKT (pAKT) [4, 9] [%]	percentage of p-AKT (pAKT) [4, 10] [%]	percentage of p-AKT (pAKT) [4, 11] [%]	percentage of p-AKT (pAKT) [4, 12] [%]	percentage of p-AKT (pAKT) [4, 13] [%]	percentage of p-AKT (pAKT) [4, 14] [%]	percentage of p-AKT (pAKT) [4, 15] [%]	further results
N#CCNC(=O)c1ccc(-c2ccnc(Nc3ccc(N4CCOCC4)cc3)n2)cc1 [Compound A, N-(cyanomethyl)-4-[2-(4-morpholinoanilino)pyrimidin-4-yl]benzamide]	–	–	–	–	–	–	–	–	–	–	–	–	–	–	–	–	–	–	–	–	Cmax ([1]; 300 mg): 695 nM; viability at 0.136 µM ([2]; 136 nM Compound A): 104%; viability at 0.272 µM ([2]; 272 nM Compound A): 99%; viability at 0.695 µM ([2]; 695 nM Compound A): 73%
C[C@H](Nc1ncnc2[nH]cnc12)c1nc2ccc(F)cc2c(=O)n1-c1ccccc1 [Compound C, (S)-2-(1-((9H-purin-6-yl)amino)ethyl)-6-fluoro-3-phenylquinazolin-4(3H)-one]	82	65	66	84	75	59	70	62	53	43	36	42	89	88	65	65	82	90	59	53	percentage of p-AKT (pAKT) [4, 16]: 75%; percentage of p-AKT (pAKT) [4, 17]: 75%; percentage of p-AKT (pAKT) [4, 18]: 43%; percentage of p-AKT (pAKT) [4, 19]: 24%
N#Cc1c(N)nc(N)nc1N[C@H](c1nc2c(F)ccc(Cl)c2c(=O)n1-c1cccnc1)C1CC1 [Compound D, (S)-2,4-diamino-6-(((5-chloro-8-fluoro-4-oxo-3-(pyridine-3-yl)-3,4-dihydroquinazolin-2-yl)(cyclopropyl)methyl)amino)pyrimidine-5-carbonitrile]	58	58	74	48	48	50	55	39	18	39	25	19	87	83	49	58	57	85	41	50	percentage of p-AKT (pAKT) [4, 16]: 60%; percentage of p-AKT (pAKT) [4, 17]: 76%; percentage of p-AKT (pAKT) [4, 18]: 19%; percentage of p-AKT (pAKT) [4, 19]: 39%
N#CC[C@H](C1CCCC1)n1cc(-c2ncnc3[nH]ccc23)cn1 [ruxolitinib, reference compound]	–	–	–	–	–	–	–	–	–	–	–	–	–	–	–	–	–	–	–	–	in vitro dose corresponding to the Cmin [1]: 1 nM; Cmax ([1]; 15 mg): 20 nM; percentage of the p-STAT5 levels ([5]; ruxolitinib 1 nM): 83% and 94% and 97% and 68% and 91%; percentage of the p-STAT5 levels ([5]; ruxolitinib 20 nM): 77% and 63% and 74% and 71% and 62%; inhibition at 0.02 µM ([6]; Homo sapiens, ruxolitinib 20 nM alone, TPO-stimulated cells, read-out: p-S6RP levels inhibited or reduced by): 69%; pS6RP levels inhibited ([6]; ruxolitinib 1 nM alone, TPO-stimulated cells): not inhibited; percentage of the p-S6RP levels ([6]; ruxolitinib 1 nM): 101% and 78% and 92% and 129% and 75%; percentage of the p-S6RP levels ([6]; ruxolitinib 20 nM): 42% and 25% and 22% and 34% and 28%
IL6: interleukin 6 (IL6) used to activate STAT3 in Pfeiffer cells	–	–	–	–	–	–	–	–	–	–	–	–	–	–	–	–	–	–	–	–	increase of pSTAT3 levels (STAT3 activation) ([7]; 1 ng/mL IL6, 4 h): 2.8 fold; increase of pSTAT3 levels (STAT3 activation) ([7]; 3 ng/mL IL6, 4 h): 3.8 fold; increase of pSTAT3 levels (STAT3 activation) ([7]; 10 ng/mL IL6, 4 h): 2.5 fold
